Measurements from patent US20180243289A1, “[…] COMPOUNDS FOR TREATING AGITATION” (Concert Pharmaceuticals, Inc., priority 2015, published 2018).
Counter-ions that a name gives are not always drawn.

Tests used:
CYP2D6 = molecular target: T1, CYP2D6 (Homo sapiens, UniProt P10635); test: Metabolic stability in CYP2D6 SUPERSOMES; assay type: in vitro ADME; settings: recombinant CYP2D6 SUPERSOMES, 50 pmol/mL CYP2D6 SUPERSOMES, 1 μM test compound, 2 mM NADPH, pH 7.4, 37° C., 0-30 min, read-out: t1/2 ± SD, calculated half-life in SUPERSOMES
T1 construct: purchased GenTest (Woburn, Mass., USA)
Experimental: Human CYP2D6 SUPERSOMES™ were purchased from GenTest (Woburn, Mass., USA). 7.5 mM stock solutions of test compounds (Compounds 100, 102, and the ethyl ether analog of dextromethorphan (“dextroethorphan”) were prepared in DMSO. The 7.5 mM stock solutions were diluted to 50 μM in acetonitrile (ACN). The 1000 pmol/mL CYP2D6 supersomes were diluted to 62.5 pmol/mL in 0.1 M potassium phosphate buffer, pH 7.4, containing 3 mM MgCl2. The diluted SUPERSOMES™ were added to wells of a 96-well deep-well polypropylene plate in triplicate. 10 μL of the 50 μM test compound was added to the supersomes and the mixture was pre-warmed for 10 minutes. Reactions were initiated by addition of pre-warmed NADPH solution. The final reaction volume was 0.5 mL and contained 50 pmol/mL CYP2D6 SUPERSOMES™, 1 μM test compound, and 2 mM NADPH in 0.1 M potassium phosphate buffer, pH 7.4, and 3 mM MgCl2. The reaction mixtures were incubated at 37° C. and 50 μL aliquots were removed at 0, 5, 10, 20, and 30 minutes and added to shallow-well 96-well plates which contained 50 μL of ice-cold ACN with internal standard to stop the reactions. The plates were stored at 4° C. for 20 minutes after which 100 μL of water was added to the wells of the plate before centrifugation to pellet precipitated proteins. Supernatants were transferred to another 96-well plate and analyzed for amounts of parent remaining by LC-MS/MS using an Applied Bio-systems API 4000 mass spectrometer.
The in vitro half-life (t1/2) for each of the test compounds was calculated from the slopes of the linear regression of % parent remaining (ln) vs incubation time relationship: in vitro t1/2=0.693/k, where k=−[slope of linear regression of % parent remaining (ln) vs incubation time]. Data analysis was performed using Microsoft Excel Software.

[1] = Metabolic stability using human liver microsomes; assay type: in vitro ADME; settings: for half-life at 1 μM / Change over non-deuterated compound (Table 3): Table 3 experiment; for half-life at 1 μM: read-out: t1/2 ± SD, calculated half-life in human liver microsomes (Table 3); for Change over non-deuterated compound (Table 3): change of half-life in human liver microsomes vs dextroethorphan
Experimental: Human liver microsomes (20 mg/mL) were obtained from Xenotech, LLC (Lenexa, Kans.). β-nicotinamide adenine dinucleotide phosphate, reduced form (NADPH), magnesium chloride (MgCl2), and dimethyl sulfoxide (DMSO) were purchased from Sigma-Aldrich.
7.5 mM stock solutions of test compounds were prepared in DMSO. The 7.5 mM stock solutions were diluted to 50 μM in acetonitrile (ACN). The 20 mg/mL human liver microsomes were diluted to 1.25 mg/mL (1 mg/mL final) in 0.1 M potassium phosphate buffer, pH 7.4, containing 3 mM MgCl2. The diluted microsomes (375 μL) were added to wells of a 96-well polypropylene plate in triplicate. 10 μL of the 50 μM test compound was added to the microsomes and the mixture was pre-warmed for 10 minutes. Reactions were initiated by addition of 125 μL of pre-warmed NADPH solution. The final reaction volume was 0.5 mL and contained 1.0 mg/mL human liver microsomes, 1 μM test compound, and 2 mM NADPH in 0.1 M potassium phosphate buffer, pH 7.4, and 3 mM MgCl2. The reaction mixtures were incubated at 37° C., and 50 μL aliquots were removed at 0, 5, 10, 20, and 30 minutes and added to shallow 96-well plates which contained 50 μL of ice-cold ACN with internal standard to stop the reactions. The plates were stored at 4° C. for 20 minutes after which 100 μL of water was added to the wells of the plate before centrifugation to pellet precipitated proteins. Supernatants were transferred to another 96-well plate and analyzed for amounts of parent remaining by LC-MS/MS using an Applied Bio-systems API 4000 mass spectrometer. 7-ethoxy coumarin was used as a positive control.
The in vitro t1/2s for test compounds were calculated from the slopes of the linear regression of % parent remaining (ln) vs incubation time relationship:
in vitro t1/2=0.693/k, where k=−[slope of linear regression of % parent remaining(ln) vs incubation time]
Data analysis was performed using Microsoft Excel Software.

[2] = 1.0 mg/mL human liver microsomes, 1 μM test compound, 2 mM NADPH, pH 7.4, 37° C.

T1 sequence (P10635 whole entry): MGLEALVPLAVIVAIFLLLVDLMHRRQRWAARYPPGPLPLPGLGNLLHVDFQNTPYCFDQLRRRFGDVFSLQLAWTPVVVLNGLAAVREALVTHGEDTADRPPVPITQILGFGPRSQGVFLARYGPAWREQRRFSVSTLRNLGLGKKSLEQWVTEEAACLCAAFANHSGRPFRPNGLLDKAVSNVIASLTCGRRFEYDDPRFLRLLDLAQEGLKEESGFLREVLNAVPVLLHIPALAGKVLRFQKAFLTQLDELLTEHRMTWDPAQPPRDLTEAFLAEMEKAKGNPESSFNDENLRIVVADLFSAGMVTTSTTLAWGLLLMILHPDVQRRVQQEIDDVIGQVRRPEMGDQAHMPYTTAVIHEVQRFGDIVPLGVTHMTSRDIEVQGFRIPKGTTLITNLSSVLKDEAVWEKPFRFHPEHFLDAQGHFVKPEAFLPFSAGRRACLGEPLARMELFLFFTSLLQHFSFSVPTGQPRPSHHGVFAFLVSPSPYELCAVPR

Compound: COc1ccc2c(c1)[C@]13CCCC[C@@H]1[C@H](C2)N(C)CC3 [Dextromethorphan, (+)-3-methoxy-17-methyl-(9α,13α,14α)-morphinan, reference compound]
- half-life at 1 μM (CYP2D6): 1.7 ± 0.3 min

Compound: [2H]C([2H])([2H])C([2H])([2H])Oc1ccc2c(c1)[C@]13CCCC[C@@H]1[C@H](C2)N(C)CC3 [Compound 104, (+)-3-(Ethoxy-d5)-17-methyl-(9α,13α,14α)-morphinan hydrochloride]
- half-life at 1 μM (CYP2D6): 49.1 ± 4.1 min
- half-life at 1 μM [1, 2]: 59.1 ± 2.2 min
- Change over non-deuterated compound (Table 3) [1]: 109%

Compound: CCOc1ccc2c(c1)[C@@]13CCCC[C@H]1[C@@H](C2)N(C)CC3 [Dextroethorphan, (+)-3-ethoxy-17-methylmorphinan, reference compound]
- half-life at 1 μM (CYP2D6): 10.3 ± 2.1 min
- half-life at 1 μM [1, 2]: 28.3 ± 0.6 min
- t1/2 ± SD, calculated half-life in human liver microsomes (Table 4) ([1]; 1.0 mg/mL human liver microsomes, 1 μM test compound, 2 mM NADPH, pH 7.4, 37° C., Table 4 experiment): 37.1 ± 5.6 min

Compound: [2H]C([2H])([2H])N1CC[C@@]23CCCC[C@@H]2[C@@H]1Cc1ccc(OC([2H])([2H])C([2H])([2H])[2H])cc13 [Compound 100, (+)-3-(Ethoxy-d5)-17-(methyl-d3)-(9α,13α,14α)-morphinan hydrochloride]
- half-life at 1 μM (CYP2D6): 51.3 ± 3.7 min
- half-life at 1 μM [1, 2]: 59.2 ± 1.7 min
- Change over non-deuterated compound (Table 3) [1]: 109%
